Non-standard residues stand in square brackets, D forms with d. Residues, ends and D or L forms follow the SMILES beside them. Phe(ol) = N[C@H](CO)Cc1ccccc1; Aib = CC(C)(N)C(=O)O
Assays:
HeLa cells = assay: Apoptosis of HeLa cells by fluorescent microscopy or FACS; format: cell-based, human; conditions: 5 or 10 μM, 24 or 48 h
Procedure: Characterization of apoptosis induced on cultured human cells by treatment with MMP inducing peptides. The example shown relates to peptide seq. ID no 3 […]. […] The peptide was then tested on cell: the HeLa cells in exponential growth phase were treated with peptide or mock treated, then analyzed by fluorescent microscopy or FACS to ascertain apoptosis.
Caspase-3 activation was performed using a fluorescent inhibitor of caspase-3 (FLICA, FAM-DEVD-FMK) from the CaspaTag™ kit (Intergen). The loss of plasma membrane integrity occurring during apoptosis of HeLa cells was determined by 7-Amino Actinomycin D. (7-AAD) incorporation (SIGMA). […] 7-AAD was added to cells at 37° C. for 15 min. Cells were trypsinized, resuspended in PBS and immediately acquired on the FACSCalibur. FAM-DEVD-FMK related fluorescence was detected using the Fl-1 channel. 7-AAD fluorescence was collected in the Fl-3 channel (>650 nm).
HeLa cells were stained by […] for 15 minutes and observe d using a DM IRB inverted fluorescence microscope (Leica).
HeLa cells were incubated for 24 or 48 h with 5 or 10 μM of peptide Seq. ID no 3 or left untreated. A. Cells were then stained with JC-1 and Hoechst dyes. […] B. Fluorescence microscopy of the cells, after 24 hours incubation with or without 5 μM peptide and staining with JC-1 dye. […]

[1] = system: purified mouse liver mitochondria; assay: FCM analysis of PTP-dependant and PTP-independent MMP after pre-treatment with inhibitors; format: biochemical; conditions: for effect on alamethicin induced MMP (in words): 50 μM BA, 10 μM CsA or 10 μM Ruthenium red, then alamethicin 5 μg/ml
Procedure: Mitochondrial Membrane Permeabilization (MMP) was induced by 1-30 μM Calcium (CaCl2, MERCK), and 5 μg/ml Alamethicin (SIGMA). Ruthenium Red (SIGMA) and the PTP inhibitor Cyclosporine A (CSA, BIOMOL) were added at 10 μM 4 minutes before the addition of the MMP-inducing agents. The uncoupler carbonyl cyanide m-chlorophenylhydrazone (mClCCP, SIGMA) was used at 20 μM to completely collapse A m.
Fixed-time analyses were performed on mitochondrial samples containing 10 μg proteins in 100 μl of swelling buffer. Samples were submitted to MPP-inducing reagents for 30 min at 25° C. Samples were immediately analyzed by flow cytometry, and data from 20.000 mitochondria were recorded. The percentage of specific swelling determined on forward scatter was calculated as follows;
Fixed-time detection of ΔΨm was performed on mitochondrial samples containing 10 μg proteins in 100 μl of swelling buffer. Samples were submitted to MPT-inducing drugs for 15 min at 25° C., and JC-1 was added at 800 nM for 15 min at 37° C. in the dark. Samples were immediately analyzed by flow cytometry, and data from 20.000 mitochondria (gated on FSC-SSC parameters) were recorded. This assay permitted to quantify the percentage of highly energized mitochondria (with both orange and green fluorescence) and depolarized mitochondria (with green fluorescence only) as depicted in part C2 of FIG. 1.
Mitochondria were exposed 5 minutes to 50 μM BA, 10 μM Csa, or 10 μM Ruthenium red followed by 30 min treatment with Ca^2+ (30 μM) or alamethicin (5 μg/ml). Then, mitochondria were subjected to FCM analysis of ΔΨm (JC-1 orange fluorescence) and SSC (Mean+/−SD; n=3).

[2] = system: mammary adenocarcinoma MDA-MD-231 cells; assay: Apoptosis by FACS analysis (ΔΨm loss and cell membrane permeability), adenocarcinoma cells; format: cell-based, human; conditions: Adenocarcinoma MDA-MD231 cells; 24 hours incubation with 5 to 20 μM peptide
Jurkat cells = assay: Apoptosis by FACS analysis (ΔΨm loss and cell membrane permeability), Jurkat cells; format: cell-based, human; conditions: 24 hours incubation with 5 to 20 μM peptide
[3] = system: purified mouse liver mitochondria; assay: Real-time flow cytometry (FCM) analysis of mitochondrial morphology (FSC/SSC) on isolated mitochondria; format: biochemical; conditions: for changes of mitochondrial size (FSC) and structure (SSC) (in words): isolated mitochondria, 1-30 μM Ca2+, 20 μM CCCP, alamethicin 5 μg/ml; for induction of MMP / activity on isolated mitochondria (in words): real time test on isolated mitochondria
Procedure: (§1) Liver mitochondria were isolated from 3-4 weeks old Balb-c mice (IFFA CREDO, Saint Germain sur l'Arbresle, France). Animals were fasted overnight before being killed by […] dislocation. Liver mitochondria were prepared as described (Jacotot, 2000). All steps were carried out at 4° C. Finally, the organelles were resuspended in ‘swelling buffer’, composed by 200 mM sucrose, 5 mM succinate, 10 mM Tris-MOPS (pH 7.4), 1 mM H3PO4, 2 μM Rotenone, and 10 μM EGTA at pH=7.4. Spectrophotometric and flow cytometric analyses were performed in this buffer. The protein content of isolated mitochondria was determined by the Bradford assay.
Fluorescence-activated flow cytometry was performed using a 3-color FACSCalibur cytometer equipped with a 15 mW air-cooled 488 nm argon laser (Becton Dickinson, San Jose, Calif.). Mitochondria analyses were performed after appropriate settings of the Forward angle light scatter (FSC)—Side angle light scatter (SSC) detectors (see FIG. 1). Discrimination between mitochondria and cellular debris and noise background was performed by an appropriate gating on FSC-SSC scatter plots (FIG. 1) (Radcliff G, Jaroszeski M J 1998 Methods Mol Biol 91:1-24 Basics of flow cytometry). Systematic confirmation of the validity of this gating was obtained by a labeling of mitochondria with the ΔΨm-insensitive mitochondrial dye MitoTracker® Green (MTG, Molecular Probes, Eugene, Oreg.) (Jacotot et al., 2001). Briefly mitochondria (1.5 μg proteins) were respuspended in 400 μl swelling buffer containing 200 nM MTG for 15 min at room temperature. The organelles were immediately analyzed on the cytometer with the CellQuest Pro software (Becton Dickinson). MTG fluorescence was collected in the FL-1 channel (530+/−15 nm) and analyzed in logarithmic amplifier mode, using the PMT at a voltage adjusted to 907. Data from 20,000 gated mitochondria were recorded and analyzed.
Mitochondrial size was analyzed through the light scattered by the organelles at low angle using the Forward scatter (FSC) photodiode. Signals were collected using the E-00 setting, with a logarithmic amplification gain of 5.41. Mitochondrial structure was evaluated by the light scattered in the perpendicular direction. It was assessed by the sensitive Side scatter (SSC) photomultiplier tube (PMT), using a voltage of 581, and a linear amplification gain adjusted to 4.27. The morphological changes related to swelling of purified mitochondria were monitored by the increase in mitochondrial size (FSC) and the decrease in the organelle structure (SSC) using the CellQuest Pro software. The FSC/SSC ratio was calculated by the FCS Assistant software and permitted to integrate both variations in size and structure into only one parameter.
Real-time experiments were performed on mitochondrial samples containing 1.5 μg proteins in 800 μl (=2 ng/µl) of swelling buffer. Samples were acquired on the flow cytometer for 5 minutes to record basal morphological criteria. Then reagents were added to samples, and variations in light scattering were recorded for the following 15 minutes. The sample flow rate was settled to 12 μl+/−3 μl/min for both fixed- and real-time analyses.
Swelling curves were obtained after plotting FSC or SSC parameters versus time, and division of the time scale into discrete periods of 1 minute. The mean FSC and SSC of mitochondria from every period were calculated by the CellQuest Pro software, and were exported into the Microsoft Excel software.

[4] = system: purified mouse liver mitochondria; assay: Real-time FCM analysis of mitochondrial transmembrane potential (ΔΨm) with JC-1; format: biochemical; conditions: JC-1 loaded mitochondria; 20 μM mClCCP, 30 μM Ca2+ or 5 μM Alamethicin
Procedure: as §1
Mitochondrial transmembrane potential (ΔΨm) was assessed by 5,5′,6,6′,-tetracholoro-1,1,3,3′-tetraethylbenzimidazolyl carbocyanine iodide (JC-1, Molecular Probes) incorporation. This potential-sensitive cationic dye accumulates in the mitochdndrial matrix according to the Nernst equation (Reers et al., 1991). JC-1 green fluorescence, associated with JC-1 monomers was collected in the FL-1 channel. JC-1 orange fluorescence, associated with the formation of J-aggregates was collected in the FL-2 channel (585+/−21 nm) (Reers et al, 1991). Both fluorescences were recorded in logarithmic amplifier mode, using the PMT at a voltage adjusted to 907 and 622 respectively. Spectral overlap was avoided by adjusting compensation network as follows: FL1-18.5% FL2 and FL2-25.4% FL1. The JC-1 orange/green fluorescence ratio was calculated with the FCS Assistant software.
Real-time monitoring of ΔΨm was performed on mitochondrial samples containing 1.5 μg proteins in 400 μl of swelling buffer. […] Then drugs were added to the sample, and ΔΨm variations were recorded for the following 16 minutes. Depolarization curves were drawn as previously indicated for swelling curves; the time scale was divided into discrete periods of 1 minute and the mean of JC-1 orange and JC-1 green fluorescence of the corresponding mitochondrial subsets was calculated by the CellQuest Pro software and exported into the Microsoft Excel software.

isolated mitochondria = assay: Cytochrome C release from isolated mitochondria by western blot on the supernatant; format: biochemical, mouse; conditions: 10 μM peptide, 30 minutes; FIG. 9B
Procedure: B. Cytochrome C release: untreated mitochondria (1), or treated with 5 μM Alamethicin (2) or 10 μM peptide seq. ID No 2 during 30 minutes were assayed for cytochrome C release by western blot on the supernatant.

[5] = system: purified mouse liver mitochondria; format: biochemical; conditions: FIG. 9A
Procedure: as §1
Large amplitude swelling was determined with Ultrospec 3300 pro […] (Amersham Pharmacia Bioech, Cambridge, England) by measuring Absorbance at 545 nm (A545) (Bernardi et al., 1992). […] Basal absorbance was recorded for 4 minutes, MPP-inducing reagents were added to samples and large amplitude swelling was monitored by the decrease in absorbance for the following 16 minutes. Data were recorded using the Data capture software (Excel, Uppsala, Sweden). […] Percentages of specific swelling were calculated as follows: (ACa2+−AReagent)×100/(ACa2+−Ainit) were ACa2+, AReagent and Ainit correspond to the absorbance value obtained for CaCl2-treated, reagent-treated and pre-treated mitochondria respectively.

[6] = 50 μM BA or 10 μM CsA 5 min, then 30 μM Ca2+ 30 min

RKKRRQRRRCGGLANKKGAWLDSTKATRYLVKTESWILRN [SEQ ID N^o 4]
apoptosis of HeLa cells (in words) (HeLa cells): mitochondrio-toxic activity

CO[C@H](C/C=C\C=C\CC/C=C/C[C@H](C)/C=C/C(=C\C(=O)O)CC(=O)O)/C(C)=C\C=C(/C)C(=O)O [bongkrekic acid]
effect on Ca2+ induced SSC decrease (in words) [1, 6]: partly affect
effect on Ca2+ induced ΔΨm loss (in words) [1, 6]: strongly reduces
effect on alamethicin induced MMP (in words) [1]: not affected

EHWSYWLRPGGGGGSLLFIHFRIGCRHSRIG [SEQ ID N^o 11]
% of apoptotic cells [2]: 92%
% of apoptotic cells (Jurkat cells): 18%

CC(=O)NC(C)(C)C(=O)N1CCC[C@H]1C(=O)NC(C)(C)C(=O)N[C@@H](C)C(=O)NC(C)(C)C(=O)N[C@@H](C)C(=O)N[C@@H](CCC(N)=O)C(=O)NC(C)(C)C(=O)N[C@H](C(=O)NC(C)(C)C(=O)NCC(=O)N[C@@H](CC(C)C)C(=O)NC(C)(C)C(=O)N1CCC[C@H]1C(=O)N[C@H](C(=O)NC(C)(C)C(=O)NC(C)(C)C(=O)N[C@@H](CCC(=O)O)C(=O)N[C@@H](CCC(N)=O)C(=O)N[C@H](CO)Cc1ccccc1)C(C)C)C(C)C [alamethicin] (Ac-[Aib]P[Aib]A[Aib]AQ[Aib]V[Aib]GL[Aib]PV[Aib][Aib]EQ[Phe(ol)])
changes of mitochondrial size (FSC) and structure (SSC) (in words) [3]: simultaneous FSC increase and SSC decrease
changes of JC-1 orange fluorescence (ΔΨm) (in words) [4]: decrease in JC-1 orange fluorescence

EHWSYWLRPG-GGGGS
% of apoptotic cells [2]: 7%
induction of MMP / activity on isolated mitochondria (in words) [3]: not active on mitochondria
% of apoptotic cells (Jurkat cells): 8%

GG*CRGDMFG*CG
induction of MMP / activity on isolated mitochondria (in words) [3]: not found inducing MMP

RKKRRQRRRCGGLETRTETWMSSEGAWKQIQKVETWALRH [SEQ ID N^o 3]
release of Cytochrome C from isolated mitochondria (isolated mitochondria): release of Cytochrome C
specific swelling of isolated mitochondria (in words) [5]: dose-dependant specific swelling
apoptosis of HeLa cells (in words) (HeLa cells): induction of apoptosis in a dose and time related effect

N.N.N.N.N.N.N.N.N.N.N.N.N.N.[Cl-].[Cl-].[Cl-].[Cl-].[Cl-].[Cl-].[O-2].[O-2].[Ru+3].[Ru+3].[Ru+4] [Ruthenium red]
inhibition of Ca2+ induced SSC decrease ([1]; 10 μM Ruthenium red 5 min, then 30 μM Ca2+ 30 min): 80%
inhibition of Ca2+ induced ΔΨm loss ([1]; 10 μM Ruthenium red 5 min, then 30 μM Ca2+ 30 min, JC-1 orange fluorescence): 80%
effect on alamethicin induced MMP (in words) [1]: not affected

[Ca+2] [Calcium]
changes of mitochondrial size (FSC) and structure (SSC) (in words) [3]: dose-dependent SSC decrease and FSC increase
changes of JC-1 orange fluorescence (ΔΨm) (in words) [4]: decrease in JC-1 orange fluorescence

N#CC(C#N)=NNc1cccc(Cl)c1 [CCCP, carbonyl cyanide meta-chlorophenylhydrazone]
changes of mitochondrial size (FSC) and structure (SSC) (in words) [3]: low but significant granularity (SSC) decrease without detectable size (FSC) changes
changes of JC-1 orange fluorescence (ΔΨm) (in words) [4]: rapid decrease in JC-1 orange fluorescence
